Source: PubChem BioAssay AID1963422 (Molecular Pharmacology Branch, DTP, NCI, 2024)

Test system: 463943-066-T-J2-PDC complex spheroid growth
Test: Anticancer human tumor 463943-066-T-J2-PDC patient-derived colon adenocarcinoma cell line growth inhibition [Asc]
Details: for IC50: curve of first compound; for viability, T/C: stronger effect = lower value
Procedure, shortened: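 Complex solid-tumor spheroids incorporating human endothelial and mesenchymal stem cells received single agents or combinations over half-log dilution ranges anchored to clinical Cmax.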

[1] = second compound 0.0316 µM, first compound 0.00316 µM
[2] = second compound 0.0316 µM, first compound 0.01 µM
[3] = second compound 0.0316 µM, first compound 0.0316 µM
[4] = second compound 0.0316 µM, first compound 0.1 µM
[5] = second compound 0.1 µM, first compound 0.00316 µM
[6] = second compound 0.1 µM, first compound 0.01 µM
[7] = second compound 0.1 µM, first compound 0.0316 µM
[8] = second compound 0.1 µM, first compound 0.1 µM
[9] = second compound 0.316 µM, first compound 0.00316 µM
[10] = second compound 0.316 µM, first compound 0.01 µM
[11] = second compound 0.316 µM, first compound 0.0316 µM
[12] = second compound 0.316 µM, first compound 0.1 µM
[13] = second compound 1 µM, first compound 0.00316 µM
[14] = second compound 1 µM, first compound 0.01 µM
[15] = second compound 1 µM, first compound 0.0316 µM
[16] = second compound 1 µM, first compound 0.1 µM
[17] = second compound 3.16 µM, first compound 0.00316 µM
[18] = second compound 3.16 µM, first compound 0.01 µM
[19] = second compound 3.16 µM, first compound 0.0316 µM
[20] = second compound 3.16 µM, first compound 0.1 µM
[21] = second compound 10 µM, first compound 0.00316 µM
[22] = second compound 10 µM, first compound 0.01 µM
[23] = second compound 10 µM, first compound 0.0316 µM
[24] = second compound 10 µM, first compound 0.1 µM
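Note: compound exposure lasted 7 days.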
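Throughout, for viability, T/C: 100% = DMSO vehicle control wells.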

SMILES: COc1c(OCCCN2CCOCC2)ccc2c3n(c(=NC(=O)c4cnc(N)nc4)nc12)CCN3 + Cc1c(S(C)(=O)=O)c(-c2cc(F)cc(N3CCN(c4ccc(NS(=O)(=O)c5ccc(NC(CCN6CCC(C(=O)OCCCP(=O)(O)O)CC6)CSc6ccccc6)c(S(=O)(=O)C(F)(F)F)c5)cc4)CC3)c2)c(-c2ccc(Cl)cc2)n1C(C)C
- IC50 (second compound 0.0316 µM): 442 nM
- IC50 (second compound 0.1 µM): 406 nM
- IC50 (second compound 0.316 µM): 215 nM
- IC50 (second compound 1 µM): 157 nM
- IC50 (second compound 3.16 µM): 27 nM
- IC50 (second compound 10 µM): < 3.16 nM
- viability, T/C [1]: 95.3%
- viability, T/C [2]: 91.8%
- viability, T/C [3]: 83.6%
- viability, T/C [4]: 64.6%
- viability, T/C (second compound 0.0316 µM, first compound 0.316 µM): 57.8%
- viability, T/C (second compound 0.0316 µM, first compound 1 µM): 38.4%
- viability, T/C [5]: 94.4%
- viability, T/C [6]: 86%
- viability, T/C [7]: 79.3%
- viability, T/C [8]: 65.9%
- viability, T/C (second compound 0.1 µM, first compound 0.316 µM): 55.7%
- viability, T/C (second compound 0.1 µM, first compound 1 µM): 36.2%
- viability, T/C [9]: 87.7%
- viability, T/C [10]: 92.6%
- viability, T/C [11]: 69%
- viability, T/C [12]: 57.5%
- viability, T/C (second compound 0.316 µM, first compound 0.316 µM): 49.7%
- viability, T/C (second compound 0.316 µM, first compound 1 µM): 34.1%
- viability, T/C [13]: 78.9%
- viability, T/C [14]: 74.5%
- viability, T/C [15]: 61.8%
- viability, T/C [16]: 51.6%
- viability, T/C (second compound 1 µM, first compound 0.316 µM): 49.5%
- viability, T/C (second compound 1 µM, first compound 1 µM): 27.1%
- viability, T/C [17]: 63.6%
- viability, T/C [18]: 58.8%
- viability, T/C [19]: 46%
- viability, T/C [20]: 41%
- viability, T/C (second compound 3.16 µM, first compound 0.316 µM): 33.6%
- viability, T/C (second compound 3.16 µM, first compound 1 µM): 21.5%
- viability, T/C [21]: 48.1%
- viability, T/C [22]: 44.7%
- viability, T/C [23]: 41.2%
- viability, T/C [24]: 35.6%
- viability, T/C (second compound 10 µM, first compound 0.316 µM): 35.6%
- viability, T/C (second compound 10 µM, first compound 1 µM): 21.4%

SMILES: NC(=O)C(=Cn1cnc(-c2cc(C(F)(F)F)cc(C(F)(F)F)c2)n1)c1cncnc1 + Cc1c(S(C)(=O)=O)c(-c2cc(F)cc(N3CCN(c4ccc(NS(=O)(=O)c5ccc(NC(CCN6CCC(C(=O)OCCCP(=O)(O)O)CC6)CSc6ccccc6)c(S(=O)(=O)C(F)(F)F)c5)cc4)CC3)c2)c(-c2ccc(Cl)cc2)n1C(C)C
- IC50 (second compound 0.0316 µM): > 300 nM
- IC50 (second compound 0.1 µM): > 300 nM
- IC50 (second compound 0.316 µM): > 300 nM
- IC50 (second compound 1 µM): > 300 nM
- IC50 (second compound 3.16 µM): > 300 nM
- IC50 (second compound 10 µM): 0.949 nM
- viability, T/C (second compound 0.0316 µM, first compound 0.000949 µM): 96.5%
- viability, T/C (second compound 0.0316 µM, first compound 0.003 µM): 97%
- viability, T/C (second compound 0.0316 µM, first compound 0.00949 µM): 84.1%
- viability, T/C (second compound 0.0316 µM, first compound 0.03 µM): 89.1%
- viability, T/C (second compound 0.0316 µM, first compound 0.0949 µM): 86%
- viability, T/C (second compound 0.0316 µM, first compound 0.3 µM): 72.3%
- viability, T/C (second compound 0.1 µM, first compound 0.000949 µM): 93.9%
- viability, T/C (second compound 0.1 µM, first compound 0.003 µM): 88.4%
- viability, T/C (second compound 0.1 µM, first compound 0.00949 µM): 84.4%
- viability, T/C (second compound 0.1 µM, first compound 0.03 µM): 80.7%
- viability, T/C (second compound 0.1 µM, first compound 0.0949 µM): 81.8%
- viability, T/C (second compound 0.1 µM, first compound 0.3 µM): 69.5%
- viability, T/C (second compound 0.316 µM, first compound 0.000949 µM): 83.5%
- viability, T/C (second compound 0.316 µM, first compound 0.003 µM): 90.7%
- viability, T/C (second compound 0.316 µM, first compound 0.00949 µM): 75.2%
- viability, T/C (second compound 0.316 µM, first compound 0.03 µM): 78.8%
- viability, T/C (second compound 0.316 µM, first compound 0.0949 µM): 72%
- viability, T/C (second compound 0.316 µM, first compound 0.3 µM): 71.3%
- viability, T/C (second compound 1 µM, first compound 0.000949 µM): 78.9%
- viability, T/C (second compound 1 µM, first compound 0.003 µM): 75.2%
- viability, T/C (second compound 1 µM, first compound 0.00949 µM): 68.8%
- viability, T/C (second compound 1 µM, first compound 0.03 µM): 72%
- viability, T/C (second compound 1 µM, first compound 0.0949 µM): 72.7%
- viability, T/C (second compound 1 µM, first compound 0.3 µM): 61%
- viability, T/C (second compound 3.16 µM, first compound 0.000949 µM): 61.2%
- viability, T/C (second compound 3.16 µM, first compound 0.003 µM): 59.6%
- viability, T/C (second compound 3.16 µM, first compound 0.00949 µM): 57.6%
- viability, T/C (second compound 3.16 µM, first compound 0.03 µM): 58.8%
- viability, T/C (second compound 3.16 µM, first compound 0.0949 µM): 55.7%
- viability, T/C (second compound 3.16 µM, first compound 0.3 µM): 49.6%
- viability, T/C (second compound 10 µM, first compound 0.000949 µM): 50.1%
- viability, T/C (second compound 10 µM, first compound 0.003 µM): 45.6%
- viability, T/C (second compound 10 µM, first compound 0.00949 µM): 48.6%
- viability, T/C (second compound 10 µM, first compound 0.03 µM): 44%
- viability, T/C (second compound 10 µM, first compound 0.0949 µM): 52%
- viability, T/C (second compound 10 µM, first compound 0.3 µM): 36.2%

SMILES: NC1CCC(NC2CC2c2ccccc2)CC1 (stereo unspecified) + Cc1c(S(C)(=O)=O)c(-c2cc(F)cc(N3CCN(c4ccc(NS(=O)(=O)c5ccc(NC(CCN6CCC(C(=O)OCCCP(=O)(O)O)CC6)CSc6ccccc6)c(S(=O)(=O)C(F)(F)F)c5)cc4)CC3)c2)c(-c2ccc(Cl)cc2)n1C(C)C
- IC50 (second compound 0.0316 µM): > 100 nM
- IC50 (second compound 0.1 µM): > 100 nM
- IC50 (second compound 0.316 µM): > 100 nM
- IC50 (second compound 1 µM): > 100 nM
- IC50 (second compound 3.16 µM): > 100 nM
- IC50 (second compound 10 µM): < 0.316 nM
- viability, T/C (second compound 0.0316 µM, first compound 0.000316 µM): 88%
- viability, T/C (second compound 0.0316 µM, first compound 0.001 µM): 82.3%
- viability, T/C [1]: 81.4%
- viability, T/C [2]: 84.3%
- viability, T/C [3]: 88.5%
- viability, T/C [4]: 80.5%
- viability, T/C (second compound 0.1 µM, first compound 0.000316 µM): 94.4%
- viability, T/C (second compound 0.1 µM, first compound 0.001 µM): 85.5%
- viability, T/C [5]: 95.6%
- viability, T/C [6]: 82.7%
- viability, T/C [7]: 87.7%
- viability, T/C [8]: 76.9%
- viability, T/C (second compound 0.316 µM, first compound 0.000316 µM): 88.1%
- viability, T/C (second compound 0.316 µM, first compound 0.001 µM): 81.7%
- viability, T/C [9]: 77.9%
- viability, T/C [10]: 85%
- viability, T/C [11]: 80%
- viability, T/C [12]: 80.2%
- viability, T/C (second compound 1 µM, first compound 0.000316 µM): 75.3%
- viability, T/C (second compound 1 µM, first compound 0.001 µM): 72.5%
- viability, T/C [13]: 73.8%
- viability, T/C [14]: 71.9%
- viability, T/C [15]: 71.9%
- viability, T/C [16]: 68.4%
- viability, T/C (second compound 3.16 µM, first compound 0.000316 µM): 59.3%
- viability, T/C (second compound 3.16 µM, first compound 0.001 µM): 58.6%
- viability, T/C [17]: 59.3%
- viability, T/C [18]: 58.6%
- viability, T/C [19]: 60.1%
- viability, T/C [20]: 56.1%
- viability, T/C (second compound 10 µM, first compound 0.000316 µM): 45.1%
- viability, T/C (second compound 10 µM, first compound 0.001 µM): 48.8%
- viability, T/C [21]: 51.6%
- viability, T/C [22]: 49.1%
- viability, T/C [23]: 52.3%
- viability, T/C [24]: 52.6%
